Test results: patent US5298517A, “Angiotensin II receptor blocking agents” (American Cyanamid Company, priority 1993, dated 1994)

Biological target: T1, Angiotensin II Receptor (Bos taurus, UniProt P25104)
T1 construct: The brownish tissue forming the adrenal cortex is scraped off and finely minced with scissors before homogenization; tissue local slaughter house (Maxwell-Cphen); host or cells: beef adrenal cortex, microsomal membranes
T1 sequence (P25104 1-359): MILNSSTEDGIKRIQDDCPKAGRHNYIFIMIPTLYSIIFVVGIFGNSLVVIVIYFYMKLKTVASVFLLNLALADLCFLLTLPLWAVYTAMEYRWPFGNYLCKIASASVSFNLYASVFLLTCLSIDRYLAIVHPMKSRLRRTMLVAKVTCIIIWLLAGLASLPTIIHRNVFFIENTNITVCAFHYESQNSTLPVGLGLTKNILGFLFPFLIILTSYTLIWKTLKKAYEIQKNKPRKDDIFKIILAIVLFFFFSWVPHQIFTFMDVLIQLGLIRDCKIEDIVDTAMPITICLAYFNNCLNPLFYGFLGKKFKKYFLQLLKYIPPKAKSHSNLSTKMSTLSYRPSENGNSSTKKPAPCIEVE
Experiment: Angiotensin II receptor binding, displacement of [^125 I](Sar^1,Ile^8)AngII from beef adrenal cortex membranes
Conditions: pH 7.4, 60 min, room temperature, triplicate
Description: Beef adrenals are obtained from a local slaughter house (Maxwell-Cphen). [^125 I](Sar^1,Ile^8)AngII, S.A. 2200 Ci/mmole, is purchased from Dupont (NEN®, Boston, Mass.). All unlabeled AngII analogs, Dimethylsulfoxide (DMSO), nucleotides, bovine serum albumin (BSA) are purchased from Sigma Chemical Co., St. Louis, Mo. U.S.A.
Approximately sixteen (16) to twenty (20) beef adrenal glands are processed as follows: fresh adrenal glands received on crushed ice are cleaned of fatty tissues and the tough membranes encapsulating the glands are removed and discarded. The brownish tissue forming the adrenal cortex is scraped off and finely minced with scissors before homogenization. Care is taken to avoid contamination with medullary tissue during dissection. The scraped cortices are suspended in twenty volumes of an ice-cold buffer medium consisting of 10 mM Tris.HCl (pH 7.4 at 22° C.) and containing 1.0 mM EDTA and 0.2 M sucrose. Unless otherwise indicated, all subsequent operations are done at 4° C. […] This P2 pellet is discarded and the liquid phase is carefully decanted off in clean centrifuge tubes and recentrifuged at high speed ([…]) […] the protein content of the preparation is determined by the Lowry's method (Lowry, O. H., Rosebrough, N. F., Farr, A. L. and Randall, R. J., Protein measurement with Folin phenol reagent. J. Biol. Chem., […], 265-275, 1951). […]

SMILES: CCCCc1nc(Cl)c([C@@]2(C)C[C@@H]3CCCN3O2)n1Cc1ccc(-c2ccccc2-c2nn[nH]n2)cc1 (racemic) [Example 8, Cis-(+/-)-2-[2-Butyl-4-chloro-1-[[2'-(1H-tetrazol-5-yl)[1,1'-biphenyl]-4-yl]methyl]-1H-imidazol-5-yl]hexahydro-2-methyl-pyrrolo[1,2-b]isoxazole]
- IC50: 34 nM
